In patent publication US11597724B2, “Herbicidally active 3-phenylisoxazoline-5-carboxamides of tetrahydro and dihydrofuran carboxylic acids and esters” (Bayer Aktiengesellschaft, priority 2017, dated 2023):

What was measured:
Format in all cases: in vivo
[1] = test system: Alopecurus myosuroides; assay: Pre-emergence herbicidal activity against ALOMY; details: dosage 80 g/ha, scored visually after about 3 weeks vs untreated controls (100% = plants have died, 0% = like control plants); for pest or weed control at 80 g/ha: Alopecurus myosuroides, 504 h
Source text: (§1) 1. Pre-Emergence Herbicidal Action and Crop Plant Compatibility Seeds of monocotyledonous and dicotyledonous weed plants and crop plants are placed in plastic or wood fiber pots and covered with soil. The compounds of the invention, formulated in the form of wettable powders (WP) or as emulsion concentrates (EC), are then applied onto the surface of the covering soil as aqueous suspension or emulsion with addition of 0.5% additive at a water application rate of 600 l/ha (converted). After the treatment, the pots are placed in a greenhouse and kept under good growth conditions for the trial plants. After about 3 weeks, the effect of the preparations is scored visually in comparison with untreated controls as percentages. For example, 100% activity=the plants have died, 0% activity=like control plants. ABUTH: Abutilon theophrasti ALOMY: Alopecurus myosuroides

[2] = test system: Setaria viridis; assay: Pre-emergence herbicidal activity against SETVI; details: dosage 80 g/ha; for pest or weed control at 80 g/ha: Setaria viridis, 504 h
Source text: as §1, with “POLCO: Polygonum convolvulus SETVI: Setaria viridis” for “ABUTH: Abutilon theophrasti ALOMY: Alopecurus myosuroides”

[3] = test system: Polygonum convolvulus; assay: Pre-emergence herbicidal activity against POLCO; details: dosage 80 g/ha; for pest or weed control at 80 g/ha: Fallopia convolvulus, 504 h
Source text: as §1, with “POLCO: Polygonum convolvulus SETVI: Setaria viridis” for “ABUTH: Abutilon theophrasti ALOMY: Alopecurus myosuroides”

[4] = test system: Echinochloa crus-galli; assay: Post-emergence herbicidal activity against ECHCG; details: dosage 320 g/ha, rated about 3 weeks after treatment; for pest or weed control at 320 g/ha: Echinochloa crus-galli, 504 h
How it was run: (§2)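 Greenhouse pot plants sprayed post-emergence at one-leaf stage (2-3 weeks after sowing) with WP or EC formulations, 0.5% additive, 600 l/ha water. Visual rating about 3 weeks later versus untreated controls: 100% = plants dead, 0% = like control.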

[5] = test system: Setaria viridis; assay: Post-emergence herbicidal activity against SETVI; details: Setaria viridis, 504 h, dosage 320 g/ha, rated about 3 weeks after treatment
How it was run: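 Greenhouse weeds in sandy loam were sprayed at the one-leaf stage, 2–3 weeks after sowing, with WP or EC formulations plus 0.5% additive at 600 l/ha water. About 3 weeks later, damage was rated visually against untreated controls, where 100% means plants dead and 0% means like control.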

[6] = test system: Viola tricolor; assay: Post-emergence herbicidal activity against VIOTR; details: dosage 320 g/ha, rated about 3 weeks after treatment; for pest or weed control at 320 g/ha: Viola tricolor, 504 h
How it was run: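 Greenhouse plants in sandy loam treated at one-leaf stage, 2 to 3 weeks after sowing, by spraying WP or EC formulations with 0.5% additive at 600 l/ha water. Activity rated visually after about 3 weeks versus untreated controls, 100% = plants dead, 0% = like control.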

[7] = test system: Lolium rigidum; assay: Post-emergence herbicidal activity against LOLRI; details: dosage 320 g/ha, rated about 3 weeks after treatment; for pest or weed control at 320 g/ha: Lolium rigidum, 504 h
How it was run: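 Greenhouse-grown plants sprayed post-emergence at the one-leaf stage, 2 to 3 weeks after sowing, with WP or EC formulations plus 0.5% additive at 600 l/ha water. Activity rated visually after about 3 weeks versus untreated controls (100% = plants dead, 0% = like control).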

[8] = test system: Hordeum murinum; assay: Post-emergence herbicidal activity against HORMU; details: Hordeum murinum, 504 h, dosage 320 g/ha
How it was run: as §2

[9] = test system: Abutilon theophrasti; assay: Post-emergence herbicidal activity against ABUTH; details: Abutilon theophrasti, 504 h, dosage 320 g/ha, rated about 3 weeks after treatment
How it was run: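 Greenhouse-grown plants treated at one-leaf stage, 2 to 3 weeks after sowing, with WP or EC formulations sprayed as aqueous suspension/emulsion plus 0.5% additive at 600 l/ha. Activity rated visually about 3 weeks later versus untreated controls (100% = plants dead, 0% = like control).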

| SMILES | pest or weed control at 80 g/ha [1] [%] | pest or weed control at 80 g/ha [2] [%] | pest or weed control at 80 g/ha [3] [%] | pest or weed control at 320 g/ha [4] [%] | pest or weed control at 320 g/ha [5] [%] | pest or weed control at 320 g/ha [6] [%] | pest or weed control at 320 g/ha [7] [%] | pest or weed control at 320 g/ha [8] [%] | pest or weed control at 320 g/ha [9] [%] | Pre-emergence herbicidal activity against ALOMY in % [1] [%] | Pre-emergence herbicidal activity against SETVI in % [2] [%] | Pre-emergence herbicidal activity against POLCO in % [3] [%] | Post-emergence herbicidal activity against ECHCG in % [4] [%] | Post-emergence herbicidal activity against LOLRI in % [7] [%] | Post-emergence herbicidal activity against VIOTR in % [6] [%] |
| --- | --- | --- | --- | --- | --- | --- | --- | --- | --- | --- | --- | --- | --- | --- | --- |
| COC(=O)[C@H]1C[C@@H](NC(=O)[C@@]2(C)CC(c3cc(F)cc(F)c3)=NO2)CO1 (mixture of isomers) [I-09, methyl cis-4-[[(5R)-3-(3,5-difluorophenyl)-5-methyl-4H-isoxazole-5-carbonyl]amino]tetrahydrofuran-2-carboxylate] | 100 | 80 | 100 | 80 | 80 | 80 | – | – | – | – | – | – | – | – | – |
| CCOC(=O)[C@H]1C[C@@H](NC(=O)C2(C)CC(c3cccc(F)c3)=NO2)CO1 (mixture of isomers) [I-30, ethyl cis-4-[[(5RS)-3-(3-fluorophenyl)-5-methyl-4H-isoxazole-5-carbonyl]amino]tetrahydrofuran-2-carboxylate] | 100 | 100 | 90 | 80 | 90 | – | 100 | 100 | – | – | – | – | – | – | – |
| CC(C)OC(=O)[C@H]1C[C@@H](NC(=O)C2(C)CC(c3cccc(F)c3)=NO2)CO1 (mixture of isomers) [I-32, isopropyl cis-4-[[(5RS)-3-(3-fluorophenyl)-5-methyl-4H-isoxazole-5-carbonyl]amino]tetrahydrofuran-2-carboxylate] | 100 | 100 | 90 | 90 | 90 | – | 100 | 90 | 80 | – | – | – | – | – | – |
| CC(C)(C)OC(=O)[C@H]1C[C@@H](NC(=O)C2(C)CC(c3cccc(F)c3)=NO2)CO1 (mixture of isomers) [I-33, tert-butyl cis-4-[[(5RS)-3-(3-fluorophenyl)-5-methyl-4H-isoxazole-5-carbonyl]amino]tetrahydrofuran-2-carboxylate] | 100 | 100 | 90 | 80 | 90 | – | 100 | 90 | – | – | – | – | – | – | – |
| COC(=O)[C@H]1C[C@@H](NC(=O)C2(C)CC(c3cc(F)cc(F)c3)=NO2)CO1 (relative stereo) [I-01, methyl cis-4-[[3-(3,5-difluorophenyl)-5-methyl-4H-isoxazole-5-carbonyl]amino]tetrahydrofuran-2-carboxylate] | 100 | – | 80 | 90 | 90 | 90 | – | – | 80 | – | – | – | – | – | – |
| COC(=O)[C@H]1C[C@@H](NC(=O)C2(OC)CC(c3cc(F)cc(F)c3)=NO2)CO1 (relative stereo) [I-05, methyl cis-4-[[3-(3,5-difluorophenyl)-5-methoxy-4H-isoxazole-5-carbonyl]amino]tetrahydrofuran-2-carboxylate] | – | 90 | 80 | 90 | 90 | – | – | – | – | – | – | – | – | – | – |
| COC(=O)[C@H]1C[C@@H](NC(=O)C2(C(F)(F)F)CC(c3cc(F)cc(F)c3)=NO2)CO1 (relative stereo) [I-06, methyl cis-4-[[3-(3,5-difluorophenyl)-5-(trifluoromethyl)-4H-isoxazole-5-carbonyl]amino]tetrahydrofuran-2-carboxylate] | 80 | – | 100 | 90 | 80 | 90 | – | – | – | – | – | – | – | – | – |
| C=CC1(C(=O)N[C@H]2CO[C@@H](C(=O)O)C2)CC(c2cc(F)cc(F)c2)=NO1 (relative stereo) [I-21, cis-4-[[3-(3,5-difluorophenyl)-5-vinyl-4H-isoxazole-5-carbonyl]amino]tetrahydrofuran-2-carboxylic acid] | 100 | 90 | 90 | 80 | 80 | 80 | – | – | – | – | – | – | – | – | – |
| COC(=O)C1COCC1NC(=O)C1(C)CC(c2cc(F)cc(F)c2)=NO1 (stereo not shown) [I-19, methyl 4-[[3-(3,5-difluorophenyl)-5-methyl-4H-isoxazole-5-carbonyl]amino]tetrahydrofuran-3-carboxylate] | 90 | – | 90 | 90 | 80 | 80 | – | – | 80 | – | – | – | – | – | – |
| C=CC1(C(=O)NC2=C(C(=O)OCC)COC2)CC(c2cc(F)cc(F)c2)=NO1 (stereo not shown) [I-23, ethyl 4-[[3-(3,5-difluorophenyl)-5-vinyl-4H-isoxazole-5-carbonyl]amino]-2,5-dihydrofuran-3-carboxylate] | 90 | – | – | 90 | – | – | 90 | 100 | – | – | – | – | – | – | – |
| C=C[C@]1(C(=O)NC2COCC2C(=O)OC)CC(c2cc(F)cc(F)c2)=NO1 (stereo partly drawn) [I-26, methyl 4-[[(5S)-3-(3,5-difluorophenyl)-5-vinyl-4H-isoxazole-5-carbonyl]amino]tetrahydrofuran-3-carboxylate] | 100 | 100 | – | 90 | 80 | 80 | – | – | – | – | – | – | – | – | – |
| COC(=O)C1COCC1NC(=O)C1(OC)CC(c2cc(F)cc(F)c2)=NO1 (stereo not shown) [I-27, methyl 4-[[3-(3,5-difluorophenyl)-5-methoxy-4H-isoxazole-5-carbonyl]amino]tetrahydrofuran-3-carboxylate] | 90 | – | 80 | – | 80 | 80 | – | – | – | – | – | – | – | – | – |
| COC(=O)C1COCC1NC(=O)[C@@]1(C)CC(c2cc(F)cc(F)c2)=NO1 (stereo partly drawn) [I-28, methyl 4-[[(5R)-3-(3,5-difluorophenyl)-5-methyl-4H-isoxazole-5-carbonyl]amino]tetrahydrofuran-3-carboxylate] | 100 | – | – | 80 | 80 | 80 | – | – | 80 | – | – | – | – | – | – |
| COC(=O)C1COCC1NC(=O)C1(OC)CC(c2cc(Cl)cc(Cl)c2)=NO1 (stereo not shown) [I-29, methyl 4-[[3-(3,5-dichlorophenyl)-5-methoxy-4H-isoxazole-5-carbonyl]amino]tetrahydrofuran-3-carboxylate] | 90 | – | 100 | 90 | 80 | 80 | – | – | 80 | – | – | – | – | – | – |
| COC(=O)C1CC(NC(=O)C2(C(C)(F)F)CC(c3cc(F)cc(F)c3)=NO2)CO1 (stereo not shown) [I-49] | – | – | – | – | – | – | – | – | – | 100 | 100 | 100 | 80 | 90 | 80 |
